Several values for one entry are separate records, joined by “and”; a condition that tells them apart may be missing. Equal entries are not always repeated. Activity calls are given as the source filed them. The rule behind the calls is not given here.
Target: Alkaline phosphatase, germ cell type (Homo sapiens) (UniProt P10696)
Experiment: placental-like alkaline phosphatase activators or inhibitors – biochemical, human placental-like ALPPL2 isozyme, selectivity assay for mouse IAP activator project, SAR follow-up (AID 493139)
Conditions: purified human placental-like alkaline phosphatase, enzymatic activity

Sequence of Alkaline phosphatase, germ cell type (Homo sapiens) (P10696 whole entry, looked up): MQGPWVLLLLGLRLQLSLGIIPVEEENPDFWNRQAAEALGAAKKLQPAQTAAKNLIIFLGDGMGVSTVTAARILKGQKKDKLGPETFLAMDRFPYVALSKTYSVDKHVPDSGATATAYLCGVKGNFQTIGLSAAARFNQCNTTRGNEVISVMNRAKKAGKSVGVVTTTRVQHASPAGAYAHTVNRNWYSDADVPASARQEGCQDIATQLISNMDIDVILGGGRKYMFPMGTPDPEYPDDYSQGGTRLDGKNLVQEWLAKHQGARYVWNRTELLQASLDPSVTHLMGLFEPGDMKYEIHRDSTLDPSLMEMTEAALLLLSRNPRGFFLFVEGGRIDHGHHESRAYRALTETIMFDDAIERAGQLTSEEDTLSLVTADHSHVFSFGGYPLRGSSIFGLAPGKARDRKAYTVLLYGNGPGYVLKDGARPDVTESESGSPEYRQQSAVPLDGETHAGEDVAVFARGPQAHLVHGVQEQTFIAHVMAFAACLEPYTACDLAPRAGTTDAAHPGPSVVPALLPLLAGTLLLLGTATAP

Row | Compound | IC50 (inhibition of PLAP activity)
1 | O=C(N/N=C/c1ccccc1F)c1cc(O)c(O)c(O)c1 | > 100 µM (inactive)
2 | O=C(NNC(=O)c1cc(O)c(O)c(O)c1)NC1CCCCC1 | 53.5 µM
3 | Cc1ccc(NC(=O)CCNS(=O)(=O)c2ccc3[nH]c(=O)oc3c2)cc1 | > 100 µM (inactive)
4 | CC(C(=O)NCCc1ccc(O)c(O)c1)N1C(=O)/C(=C\c2ccco2)SC1=S (stereo not drawn) | > 100 µM (inactive)
5 | O=C(CCNS(=O)(=O)c1ccc2[nH]c(=O)oc2c1)Nc1ccccc1 | > 100 µM (inactive)
6 | O=C(CN1C(=O)/C(=C/c2ccco2)SC1=S)Nc1cccc(C(=O)O)c1 | > 100 µM (inactive)
7 | CC(C(=O)Nc1cccc(C(=O)O)c1)N1C(=O)/C(=C\c2ccco2)SC1=S (stereo not drawn) | > 100 µM (inactive)
8 | CC(C)c1ccc(NC(=O)CCNS(=O)(=O)c2ccc3[nH]c(=O)oc3c2)cc1 | > 100 µM (inactive)
9 | O=S(=O)(Nc1ncccn1)c1ccc(NC(=S)NCCC(c2ccccc2)c2ccccc2)cc1 | > 100 µM (inactive)
10 | CCOc1ccccc1CNC(=O)CCNS(=O)(=O)c1ccc2[nH]c(=O)oc2c1 | > 100 µM (inactive)
11 | COc1cc(C(=O)NNc2nc3cc4c(cc3s2)OCO4)cc(OC)c1OC | 15.3 µM
12 | Cc1ccc(NC(=O)CCNS(=O)(=O)c2ccc3[nH]c(=O)oc3c2)cc1F | > 100 µM (inactive)
13 | O=C(CN1C(=O)/C(=C\c2ccco2)SC1=S)Nc1cccc(C(=O)O)c1 | > 100 µM (inactive)
14 | O=C(CCNS(=O)(=O)c1ccc2[nH]c(=O)oc2c1)Nc1cccc(-c2ccno2)c1 | > 100 µM (inactive)
15 | COc1ccccc1NC(=O)CCNS(=O)(=O)c1ccc2[nH]c(=O)oc2c1 | > 100 µM (inactive)
16 | O=C(CN1C(=O)/C(=C/c2ccco2)SC1=S)N[C@@H]1CSC[C@@H]1O | > 100 µM (inactive)
17 | Cc1cc(=O)oc2cc(NC(=S)NCCC(c3ccccc3)c3ccccc3)ccc12 | > 100 µM (inactive)
18 | COc1cccc(CNC(=O)CCNS(=O)(=O)c2ccc3[nH]c(=O)oc3c2)c1 | > 100 µM (inactive)
19 | CC(C)N1CCC(=NNC(=O)c2cc(O)c(O)c(O)c2)CC1 | > 100 µM (inactive) and 61.4 µM
20 | CC(C(=O)Nc1ccc(C(=O)O)cc1)N1C(=O)/C(=C\c2ccco2)SC1=S (stereo not drawn) | 21.9 µM

Other lines, results leading:

Row | IC50 (inhibition of PLAP activity) | Compound
21 | > 100 µM (inactive) | N#Cc1c(SCC(=O)Nc2nc3ccccc3s2)sc2c(O)cc(=O)[nH]c12
22 | > 100 µM (inactive) | Cc1ccc(NC(=O)CSc2sc3c(O)cc(=O)[nH]c3c2C#N)c(F)c1
23 | > 100 µM (inactive) | N#Cc1c(SCC(=O)Nc2cccc(F)c2)sc2c(O)cc(=O)[nH]c12
24 | > 100 µM (inactive) | CCOc1cccc(NC(=O)CSc2sc3c(O)cc(=O)[nH]c3c2C#N)c1
25 | > 100 µM (inactive) | CCN(CC)C(=O)CSc1sc2c(O)cc(=O)[nH]c2c1C#N
26 | > 100 µM (inactive) | CCOC(=O)N1CCC(NC(=O)CSc2sc3c(O)cc(=O)[nH]c3c2C#N)CC1
27 | > 100 µM (inactive) | CCOC(=O)NC(=O)CSc1sc2c(O)cc(=O)[nH]c2c1C#N
28 | > 100 µM (inactive) | N#Cc1cccc(NC(=O)CSc2sc3c(O)cc(=O)[nH]c3c2C#N)c1
29 | > 100 µM (inactive) | CSc1cccc(NC(=O)CCNS(=O)(=O)c2ccc3[nH]c(=O)oc3c2)c1
30 | > 100 µM (inactive) | COc1ccccc1NC(=O)CSc1sc2c(O)cc(=O)[nH]c2c1C#N
31 | > 100 µM (inactive) | COc1cccc(NC(=O)CN(C)S(=O)(=O)c2ccc3[nH]c(=O)oc3c2)c1
32 | > 100 µM (inactive) | N#Cc1c(SCC(=O)Nc2ccccc2C(F)(F)F)sc2c(O)cc(=O)[nH]c12
33 | > 100 µM (inactive) | CCc1nnc(NC(=O)CSc2sc3c(O)cc(=O)[nH]c3c2C#N)s1
